What was measured:
Assay type in all cases: binding
CCR2 = biological target: T1, CCR2 (Homo sapiens, UniProt P41597); experiment: NanoBRET screen HiBiT-CCR2 in HEK293
T1 construct: purchased Promega (in-house HiBiT-GPCR construct library, NanoBRET)
Description: (§1) Each tracer candidate was screened across the entire library of HiBiT-GPCR constructs using NanoBRET as the detection modality. As depicted in Figure 4A, the specificity of interactions was evaluated through decrease in BRET due to competitive displacement of a bound tracer by excess parental compound. Each tracer was analyzed for binding to each HiBiT-GPCR fusion in the absence and in the presence of competing parental compound. Briefly, HEK293 cells were transfected with HiBiT-GPCR constructs diluted into promoterless DNA to reduce expression and maximize translocation to the cell surface. Each tracer candidate was then screened at concentrations of 1 μM and 0.1 μM across cells expressing these fusions. Cells were treated for 1.5 h with tracer either alone or in the presence of 20 μM competing parental compound (i.e., control). BRET was measured upon addition of purified LgBiT and subsequent complementation with HiBiT genetically fused to a GPCR. The specificity of interactions was assessed through a decrease in BRET signal due to competitive displacement of the bound tracer. To further gauge the robustness of these interactions, the fold response over the control (i.e., BRETtracer/BRETcontrol) was calculated. We chose a 1.5-fold response, which translates to ≥7-fold signal over noise as the minimal threshold required to score an interaction as positive. […]. Below we highlight the screening results obtained for our exemplary fluorescent tracers based on Clozapine, Amitriptyline and AZD1283.
(§2) HiBiT-GPCR DNA constructs were diluted in 10 mM Tris pH 8 to a final concentration of 0.01 μg/μL, arrayed in 96-well plates and stored at −20 °C. For transfection, HEK293 cells were suspended in Opti-MEM (without phenol red) supplemented with 2% fetal bovine serum (Seradigm) and 100 units/mL penicillin–streptomycin (Gibco) at a final concentration of 220,000 cells/mL and dispensed into white 96-well plates at 90 μL/well. Subsequent transfections and screens were carried using an Agilent Bravo Automated Liquid Handling Platform. First, the 96-well HiBiT DNA arrays were diluted 25-fold in Opti-MEM (without serum or phenol red) to a final concentration of 0.0004 μg/μL and 20 μL of the diluted DNAs were transferred into new 96-well plates. Next, promoterless carrier DNA (1 μg/μL) was diluted 25-fold (0.04 μg/μL) and then dispensed into the diluted arrays at 20 μL/well. Following brief mixing, Viafect transfection reagent (Promega) diluted 16-fold into Opti-MEM was dispensed into the plates at 40 μL/well. After mixing by pipetting, plates were incubated for 10 min on the pipetting station deck. The DNA-transfection reagent complexes were then added to plates containing cells. To facilitate the screen, 10 μL of DNA-transfection reagent complexes were added in duplicates to the top 4 and bottom 4 rows, resulting in two identical 48-well arrays per plate. Plates with transfected cells were incubated for 18–20 h at 37 °C/5% CO2. A screen of each tracer across the entire library using two different concentrations requires duplicate plates of transfected cells. Depending on the number of tracers being screened, transfections can be scaled up using the same ratios. The next day, for each tracer, four 20× screening solutions in tracer dilution buffer (Promega) were prepared: two duplicates at final concentration of 20 μM and two duplicates at a final concentration of 2 μM. A competing unmodified compound was added to one of each duplicate at a final concentration of 400 μM. The four resulting solutions were diluted 4-fold in Opti-MEM without serum or phenol red to generate 5× solutions (5 µM and 0.5 µM tracer +/− 100 μM competing compound). To screen the library, a BioTek MultiFlo FX liquid dispenser was used to dispense 22.5 µL of tracer solution to the top 4 rows and 22.5 µL tracer + competing compound solution to the 4 bottom rows. Plates were briefly mixed on an orbital shaker and incubated for 1.5 h at room temperature. […]

OXTR = biological target: T2, OXTR (Homo sapiens, UniProt P30559); experiment: NanoBRET screen HiBiT-OXTR in HEK293
T2 construct: purchased Promega (in-house HiBiT-GPCR construct library, NanoBRET)
T2 sequence (P30559 1-389): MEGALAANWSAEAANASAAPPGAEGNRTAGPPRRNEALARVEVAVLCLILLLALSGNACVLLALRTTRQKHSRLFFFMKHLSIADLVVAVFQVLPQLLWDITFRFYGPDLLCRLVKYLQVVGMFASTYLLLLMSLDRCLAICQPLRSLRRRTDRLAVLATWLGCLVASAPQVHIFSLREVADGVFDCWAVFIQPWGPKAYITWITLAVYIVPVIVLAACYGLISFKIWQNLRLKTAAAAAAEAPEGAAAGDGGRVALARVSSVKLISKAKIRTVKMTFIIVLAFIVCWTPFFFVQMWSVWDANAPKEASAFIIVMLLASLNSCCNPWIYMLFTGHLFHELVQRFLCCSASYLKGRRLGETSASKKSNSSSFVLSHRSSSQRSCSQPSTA
Description: as §1, §2

AGTR2 = biological target: T3, AGTR2 (Homo sapiens, UniProt P50052); experiment: NanoBRET screen HiBiT-AGTR2 in HEK293
T3 construct: purchased Promega (in-house HiBiT-GPCR construct library, NanoBRET)
T3 sequence (P50052 1-363): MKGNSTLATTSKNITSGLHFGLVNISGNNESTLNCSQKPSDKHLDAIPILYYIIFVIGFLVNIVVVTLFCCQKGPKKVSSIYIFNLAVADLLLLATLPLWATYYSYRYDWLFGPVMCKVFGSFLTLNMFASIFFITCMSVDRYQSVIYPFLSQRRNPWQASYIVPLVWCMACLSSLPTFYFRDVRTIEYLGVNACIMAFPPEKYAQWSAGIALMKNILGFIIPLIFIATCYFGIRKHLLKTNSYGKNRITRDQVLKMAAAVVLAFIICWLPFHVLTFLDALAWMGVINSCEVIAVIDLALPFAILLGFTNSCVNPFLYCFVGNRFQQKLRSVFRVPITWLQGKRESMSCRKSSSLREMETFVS
Description: as §1, §2

CCR5 = biological target: T4, CCR5 (Homo sapiens, UniProt P51681); experiment: NanoBRET screen HiBiT-CCR5 in HEK293
T4 construct: purchased Promega (in-house HiBiT-GPCR construct library, NanoBRET)
Description: as §1, §2

T1 sequence (P41597 whole entry): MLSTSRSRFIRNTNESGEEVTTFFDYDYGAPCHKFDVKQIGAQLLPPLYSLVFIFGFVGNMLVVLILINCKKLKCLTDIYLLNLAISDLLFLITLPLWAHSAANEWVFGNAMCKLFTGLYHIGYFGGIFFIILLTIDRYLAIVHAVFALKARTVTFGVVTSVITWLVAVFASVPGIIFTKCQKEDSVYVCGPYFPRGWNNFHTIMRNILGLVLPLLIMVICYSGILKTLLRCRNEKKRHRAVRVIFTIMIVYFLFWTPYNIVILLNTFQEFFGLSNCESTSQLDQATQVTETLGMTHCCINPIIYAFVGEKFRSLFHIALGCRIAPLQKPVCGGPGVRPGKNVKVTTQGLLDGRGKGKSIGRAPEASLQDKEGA
T4 sequence (P51681 whole entry): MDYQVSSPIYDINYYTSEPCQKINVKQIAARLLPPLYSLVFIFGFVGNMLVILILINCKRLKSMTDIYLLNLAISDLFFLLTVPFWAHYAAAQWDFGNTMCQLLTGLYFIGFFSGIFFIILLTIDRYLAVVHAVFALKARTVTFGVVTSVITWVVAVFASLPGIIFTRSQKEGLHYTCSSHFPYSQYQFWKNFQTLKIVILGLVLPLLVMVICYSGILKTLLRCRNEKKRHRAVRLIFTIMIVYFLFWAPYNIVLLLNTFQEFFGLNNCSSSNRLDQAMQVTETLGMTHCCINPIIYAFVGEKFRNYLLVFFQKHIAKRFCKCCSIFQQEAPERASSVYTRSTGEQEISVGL

| Compound | NanoBRET Fold Response (CCR2; CCR2, 0.1μM tracer) | NanoBRET Fold Response (CCR2; CCR2, 1μM tracer) | NanoBRET Fold Response (OXTR; OXTR, 0.1μM tracer) | NanoBRET Fold Response (OXTR; OXTR, 1μM tracer) | NanoBRET Fold Response (AGTR2; AGTR2, 0.1μM tracer) | NanoBRET Fold Response (AGTR2; AGTR2, 1μM tracer) | NanoBRET Fold Response (CCR5; CCR5, 0.1μM tracer) | NanoBRET Fold Response (CCR5; CCR5, 1μM tracer) | NanoBRET Fold Response (CCR2; CCR2, tracer 0.1μM) | NanoBRET Fold Response (CCR2; CCR2, tracer 1μM) | NanoBRET Fold Response (OXTR; OXTR, tracer 0.1μM) | NanoBRET Fold Response (AGTR2; AGTR2, tracer 0.1μM) | NanoBRET Fold Response (AGTR2; AGTR2, tracer 1μM) | NanoBRET Fold Response (CCR5; CCR5, tracer 0.1μM) | NanoBRET Fold Response (CCR5; CCR5, tracer 1μM) | other results |
| --- | --- | --- | --- | --- | --- | --- | --- | --- | --- | --- | --- | --- | --- | --- | --- | --- |
| COc1ccc2[nH]c(-c3ccc(CNC(=O)CCOCCOCCOCCOCCNC(=O)CCc4ccc5n4[B-](F)(F)[N+]4=C(c6ccc[nH]6)C=CC4=C5)cc3)c(CCNC(C)=O)c2n1 [AzomelatoninICO9-2-NB590] | – | – | – | – | – | – | – | – | – | – | – | – | – | – | – | NanoBRET Fold Response (CCR2; 0.1μM tracer): 1.23; NanoBRET Fold Response (CCR2; 1μM tracer): 1.22; NanoBRET Fold Response (OXTR; 0.1μM tracer): 0.99; NanoBRET Fold Response (OXTR; 1μM tracer): 0.87; NanoBRET Fold Response (AGTR2; 0.1μM tracer): 0.88; NanoBRET Fold Response (AGTR2; 1μM tracer): 0.95; NanoBRET Fold Response (CCR5; 0.1μM tracer): 1.31; NanoBRET Fold Response (CCR5; 1μM tracer): 0.98 |
| O=C(CCOCCOCCOCCOCCNC(=O)CCc1ccc2n1[B-](F)(F)[N+]1=C(c3ccc[nH]3)C=CC1=C2)NCCCN1CCN(C2=Nc3cc(Cl)ccc3Nc3ccccc32)CC1 [Clozapine-a-2-NB590] | 1.06 | 0.73 | 1.03 | 1.01 | 1.02 | 1.03 | 1.07 | 0.90 | – | – | – | – | – | – | – | – |
| CN1CCN(C2=Nc3cc(Cl)ccc3Nc3ccc(CNC(=O)CCOCCOCCOCCOCCNC(=O)CCc4ccc5n4[B-](F)(F)[N+]4=C(c6ccc[nH]6)C=CC4=C5)cc32)CC1 [Clozapine-b-2-NB590] | 1.01 | 0.93 | 1.05 | 1.03 | 1.03 | 0.95 | 1.05 | 0.92 | – | – | – | – | – | – | – | – |
| CN1CCN(C2=Nc3cc(Cl)ccc3N(CC(=O)NCCOCCOCCOCCOCCNC(=O)CCc3ccc4n3[B-](F)(F)[N+]3=C(c5ccc[nH]5)C=CC3=C4)c3ccccc32)CC1 [Clozapine-c-2-NB590] | 0.94 | 0.75 | 0.97 | 0.96 | 0.98 | 0.98 | 0.98 | 0.95 | – | – | – | – | – | – | – | – |
| O=C(CCOCCOCCOCCOCCNC(=O)CCc1ccc2n1[B-](F)(F)[N+]1=C(c3ccc[nH]3)C=CC1=C2)NCCCN1CCN(C2=Nc3ccccc3Oc3ccc(Cl)cc32)CC1 [Loxapine-a-2-NB590] | – | – | – | – | – | – | – | – | 0.97 | 0.81 | 0.97 | 1.00 | 1.01 | 1.00 | 1.34 | NanoBRET Fold Response (OXTR; OXTR, tracer 1μM): 1.02 |
| COc1ccccc1N1CCN(CCCCN2C(=O)c3ccc(CNC(=O)CCOCCOCCOCCOCCNC(=O)CCc4ccc5n4[B-](F)(F)[N+]4=C(c6ccc[nH]6)C=CC4=C5)cc3C2=O)CC1 [NAN-190-2-NB590] | – | – | – | – | – | – | – | – | 1.04 | 1.00 | 0.96 | 1.02 | 0.98 | 0.95 | 1.03 | – |
